# Results published in patent publication US7902327B2, “Dendrimeric peptides, pharmaceutical compositions and methods of using the same” (New York University School of Medicine, priority 2007, dated 2011).
# Read-outs that look alike come from different tables or passages of the source. Where a SMILES comes first, the peptide text is derived from it. Where no end group is shown, it is not given here. Side-chain parts run from the residue outwards. [ ]: non-standard residue; d: D form. The star is where a group is joined. Lys(α,ε-(ArgTrp)2) = N=C(N)NCCC[C@H](N)C(=O)N[C@@H](Cc1c[nH]c2ccccc12)C(=O)NCCCC[C@H](NC(=O)[C@H](Cc1c[nH]c2ccccc12)NC(=O)[C@@H](N)CCCNC(=N)N)C(=O)*; NHBn = c1ccc(CN*)cc1; OBn = c1ccc(CO*)cc1; X1 = CCCCCCCCCN*; βAla = NCCC(=O)O
# Tests used:
# [1] = system: ampicillin- and streptomycin-resistant E. coli (D31); conditions: for MIC50 E. coli D31: salt not stated
# [2] = system: multi-drug resistant strain S. aureus
# [3] = system: B. anthracis (32F2 Sterne)
# [4] = system: Acinetobacter. baumannii (ATCC BAA-747)
# fresh sheep erythrocytes = assay: hemolytic assay; assay type: cell-based; conditions: sheep erythrocytes, 37° C., 30 minutes
# Description: Hemolytic activity of model peptides was assessed on fresh sheep erythrocytes (Fitzgerald Inc., Concord, Mass.). […] The resulting supernatant was diluted by a factor of 40 in distilled water. The absorbances of the supernatant at λ=540 nm (OD540) were measured in the UV Spectrophotometer. […] Hemolytic index (HI) was defined as HI═HD50/IC50.
# E. coli RP437 biofilms = assay: biofilm assay on stainless steel coupons with LIVE/DEAD staining; assay type: cell-based; conditions: for Biofilm coefficients: Dead cells / Biofilm coefficients: Live cells / Biofilm coefficients: Total biofilms: 24 hours
# Description: The stainless steel (S.S.) coupons were polished using a fine 3M SandBlaster sandpaper, then autoclaved for sterilization. […] For all the treatments, duplicate coupons were tested. To analyze the E. coli biofilms using fluorescence microscopy, the biofilms were stained with […] bacterial viability kit (Cat# L7012, Invitrogen Corporation, California). Each S.S. coupon was washed gently by dipping vertically in 0.85% NaCl buffer three times (change to fresh buffer after each dipping). Then, they were soaked in 1 mL of 0.85% NaCl buffer containing 3 μl of staining component A and B (1:4) in the dark for 15 mins. Images were taken by AXIO Imager.M1 (Carl Zeiss, German). Five images were taken for each sample. Data were obtained and are presented in Table 3, below, as well as in FIG. 5.
Molecule,MIC50 E. coli (E. coli) [mg/L],MIC50 S. aureus ([2]; salt not stated) [mg/L],MIC50 B. anthracis [3] [mg/L],MIC50 A. baumannii [4] [mg/L],also measured
"N=C(N)NCCC[C@H](N)C(=O)N[C@@H](Cc1c[nH]c2ccccc12)C(=O)NCCCC[C@H](NC(=O)[C@H](Cc1c[nH]c2ccccc12)NC(=O)[C@@H](N)CCCNC(=N)N)C(=O)NCCCC[C@H](NC(=O)[C@H](CCCCNC(=O)[C@H](Cc1c[nH]c2ccccc12)NC(=O)[C@@H](N)CCCNC(=N)N)NC(=O)[C@H](Cc1c[nH]c2ccccc12)NC(=O)[C@@H](N)CCCNC(=N)N)C(=O)NCCC(=O)NCc1ccccc1 [(RW)4D-Benzyl amine] (H-RWK([Trp-Arg])K(Lys(α,ε-(ArgTrp)2))[βAla]-NHBn)",12.8,37.8,34.8,121,MIC50 E. coli D31 [1]: 21.3 mg/L; MIC50 B. subtilis (B. Subtilis (ATCC 6633); ATCC 6633): 5.0 mg/L
"N=C(N)NCCC[C@H](N)C(=O)N[C@@H](Cc1c[nH]c2ccccc12)C(=O)NCCCC[C@H](NC(=O)[C@H](Cc1c[nH]c2ccccc12)NC(=O)[C@@H](N)CCCNC(=N)N)C(=O)NCCCC[C@H](NC(=O)[C@H](CCCCNC(=O)[C@H](Cc1c[nH]c2ccccc12)NC(=O)[C@@H](N)CCCNC(=N)N)NC(=O)[C@H](Cc1c[nH]c2ccccc12)NC(=O)[C@@H](N)CCCNC(=N)N)C(=O)NCCC(=O)OCc1ccccc1 [(RW)4D-Benzyl ester] (H-RWK([Trp-Arg])K(Lys(α,ε-(ArgTrp)2))[βAla]-OBn)",14.3,19.6,34.2,78.7,MIC50 E. coli D31 [1]: 29.7 mg/L; MIC50 B. subtilis (B. Subtilis (ATCC 6633); ATCC 6633): 6.8 mg/L
"CCCCCCCCCNC(=O)CCNC(=O)[C@H](CCCCNC(=O)[C@H](CCCCNC(=O)[C@H](Cc1c[nH]c2ccccc12)NC(=O)[C@@H](N)CCCNC(=N)N)NC(=O)[C@H](Cc1c[nH]c2ccccc12)NC(=O)[C@@H](N)CCCNC(=N)N)NC(=O)[C@H](CCCCNC(=O)[C@H](Cc1c[nH]c2ccccc12)NC(=O)[C@@H](N)CCCNC(=N)N)NC(=O)[C@H](Cc1c[nH]c2ccccc12)NC(=O)[C@@H](N)CCCNC(=N)N [(RW)4D-Nonylamine] (H-RWK([Trp-Arg])K(Lys(α,ε-(ArgTrp)2))[βAla]-X1)",15.8,21.6,31.8,75.2,MIC50 E. coli D31 [1]: 26.7 mg/L; MIC50 B. subtilis (B. Subtilis (ATCC 6633); ATCC 6633): 6.5 mg/L
NC(=O)CCNC(=O)[C@H](CCCCNC(=O)[C@H](CCCCNC(=O)[C@H](Cc1c[nH]c2ccccc12)NC(=O)[C@@H](N)Cc1c[nH]cn1)NC(=O)[C@H](Cc1c[nH]c2ccccc12)NC(=O)[C@@H](N)Cc1c[nH]cn1)NC(=O)[C@H](CCCCNC(=O)[C@H](Cc1c[nH]c2ccccc12)NC(=O)[C@@H](N)Cc1c[nH]cn1)NC(=O)[C@H](Cc1c[nH]c2ccccc12)NC(=O)[C@@H](N)Cc1c[nH]cn1 [Den(HW)4D],30.6,,,82.7,
NCCCC[C@H](N)C(=O)N[C@@H](Cc1ccccc1)C(=O)NCCCC[C@H](NC(=O)[C@H](Cc1ccccc1)NC(=O)[C@@H](N)CCCCN)C(=O)NCCCC[C@H](NC(=O)[C@H](CCCCNC(=O)[C@H](Cc1ccccc1)NC(=O)[C@@H](N)CCCCN)NC(=O)[C@H](Cc1ccccc1)NC(=O)[C@@H](N)CCCCN)C(=O)NCCC(N)=O [Den(KF)4D],77,145,,175,
NCCCC[C@H](N)C(=O)N[C@@H](Cc1c[nH]c2ccccc12)C(=O)NCCCC[C@H](NC(=O)[C@H](Cc1c[nH]c2ccccc12)NC(=O)[C@@H](N)CCCCN)C(=O)NCCCC[C@H](NC(=O)[C@H](CCCCNC(=O)[C@H](Cc1c[nH]c2ccccc12)NC(=O)[C@@H](N)CCCCN)NC(=O)[C@H](Cc1c[nH]c2ccccc12)NC(=O)[C@@H](N)CCCCN)C(=O)NCCC(N)=O [Den(KW)4D],30.6,23.3,,52,
NCCCC[C@H](N)C(=O)N[C@@H](Cc1ccc(O)cc1)C(=O)NCCCC[C@H](NC(=O)[C@H](Cc1ccc(O)cc1)NC(=O)[C@@H](N)CCCCN)C(=O)NCCCC[C@H](NC(=O)[C@H](CCCCNC(=O)[C@H](Cc1ccc(O)cc1)NC(=O)[C@@H](N)CCCCN)NC(=O)[C@H](Cc1ccc(O)cc1)NC(=O)[C@@H](N)CCCCN)C(=O)NCCC(N)=O [Den(KY)4D],84.4,240,,360,
N=C(N)NCCC[C@H](N)C(=O)N[C@@H](Cc1ccc2ccccc2c1)C(=O)NCCCC[C@H](NC(=O)[C@H](Cc1ccc2ccccc2c1)NC(=O)[C@@H](N)CCCNC(=N)N)C(=O)NCCCC[C@H](NC(=O)[C@H](CCCCNC(=O)[C@H](Cc1ccc2ccccc2c1)NC(=O)[C@@H](N)CCCNC(=N)N)NC(=O)[C@H](Cc1ccc2ccccc2c1)NC(=O)[C@@H](N)CCCNC(=N)N)C(=O)NCCC(N)=O [Den(R-2Nal)4D],21.5,36.0,,51.3,
N=C(N)NCCC[C@H](N)C(=O)N[C@@H](Cc1ccccc1)C(=O)NCCCC[C@H](NC(=O)[C@H](Cc1ccccc1)NC(=O)[C@@H](N)CCCNC(=N)N)C(=O)NCCCC[C@H](NC(=O)[C@H](CCCCNC(=O)[C@H](Cc1ccccc1)NC(=O)[C@@H](N)CCCNC(=N)N)NC(=O)[C@H](Cc1ccccc1)NC(=O)[C@@H](N)CCCNC(=N)N)C(=O)NCCC(N)=O [Den(RF)4D],30,180,,160,
N=C(N)NCCC[C@H](N)C(=O)NC(Cc1c[nH]c2ccc(F)cc12)C(=O)NCCCC[C@H](NC(=O)C(Cc1c[nH]c2ccc(F)cc12)NC(=O)[C@@H](N)CCCNC(=N)N)C(=O)NCCCC[C@H](NC(=O)[C@H](CCCCNC(=O)C(Cc1c[nH]c2ccc(F)cc12)NC(=O)[C@@H](N)CCCNC(=N)N)NC(=O)C(Cc1c[nH]c2ccc(F)cc12)NC(=O)[C@@H](N)CCCNC(=N)N)C(=O)NCCC(N)=O (some centres unmarked) [Den(RW*)4D],9.3,13,,35,
N=C(N)NCCC[C@H](N)C(=O)N[C@@H](Cc1ccc(O)cc1)C(=O)NCCCC[C@H](NC(=O)[C@H](Cc1ccc(O)cc1)NC(=O)[C@@H](N)CCCNC(=N)N)C(=O)NCCCC[C@H](NC(=O)[C@H](CCCCNC(=O)[C@H](Cc1ccc(O)cc1)NC(=O)[C@@H](N)CCCNC(=N)N)NC(=O)[C@H](Cc1ccc(O)cc1)NC(=O)[C@@H](N)CCCNC(=N)N)C(=O)NCCC(N)=O [Den(RY)4D],12.6,45.7,,193,
Gentamicin [reference compound],,,3.1,,HD50 (peptide concentration corresponding to 50% hemolysis) (fresh sheep erythrocytes): >2000 µg/mL; MIC50 E. coli ([1]; 0 mM NaCl): 1.2 mg/L; MIC50 E. coli ([1]; 75 mM NaCl): 1.2 mg/L; MIC50 E. coli ([1]; 150 mM NaCl): 1.2 mg/L; MIC50 S. aureus ([2]; 0 mM NaCl): 51 mg/L; MIC50 S. aureus ([2]; 75 mM NaCl): 51 mg/L; MIC50 S. aureus ([2]; 150 mM NaCl): 51 mg/L; MIC50 B. subtilis (B. Subtilis (ATCC 6633)): 0.32 mg/L; MIC50 E. faecalis (E. faecalis (29212)): 0.36 mg/L
"RWRWRW-NH2 (C-terminus assumed) [Hexamer, reference compound]",,,,,Total biofilm formation compared with blank control (ANOVA) (E. coli RP437 biofilms; 25 μg/mL): not significant; Biofilm coefficients: Dead cells (E. coli RP437 biofilms; 25 μg/mL): 12.29% ± 2.00%; Biofilm coefficients: Live cells (E. coli RP437 biofilms; 25 μg/mL): 5.18% ± 1.57%; Biofilm coefficients: Total biofilms (E. coli RP437 biofilms; 25 μg/mL): 17.49% ± 2.20%; Total biofilm formation compared with blank control (ANOVA) (E. coli RP437 biofilms; 50 μg/mL): significantly reduced; Biofilm coefficients: Dead cells (E. coli RP437 biofilms; 50 μg/mL): 12.22% ± 2.02%; Biofilm coefficients: Live cells (E. coli RP437 biofilms; 50 μg/mL): 4.25% ± 1.55%; Biofilm coefficients: Total biofilms (E. coli RP437 biofilms; 50 μg/mL): 16.68% ± 2.11%
